“Also recorded” adds a separate entry of the source.
Assays:
[1] = system: IMPDH−/− mice; test: Electroretinographic analysis of IMPDH−/− mice after claudin-5 suppression and GTP injection; type: in vivo
Experimental: IMPDH−/− mice that had received a hydrodynamic injection of siRNA targeting claudin-5 were dark-adapted overnight and prepared for electroretinography under dim red light. Pupillary dilation was carried out by installation of 1% cyclopentalate and 2.5% phenylephrine. Animals were anesthetized by intraperitoneal injection of ketamine (2.08 mg per 15 g body weight) and xylazine (0.21 mg per 15 g body weight). Once the animal was anaesthetized, GTP was injected intraperitoneally. The ERG commenced ten minutes after administration of anesthetic. Standardised flashes of light were presented to the mouse in a Ganzfeld bowl to ensure uniform retinal illumination. The ERG responses were recorded simultaneously from both eyes by means of gold wire electrodes (Roland Consulting Gmbh) using Vidisic (Dr Mann Pharma, Germany) as a conducting agent and to maintain corneal hydration. The eye was maintained in a proposed position throughout the examination by means of a small plastic band placed behind the globe. Reference and ground electrodes were positioned subcutaneously, approximately 1 mm from the temporal canthus and anterior to the tail respectively. Body temperature was maintained at 37° C. using a heating device controlled by a rectal temperature probe. Responses were analysed using a RetiScan RetiPort electrophysiology unit (Roland Consulting Gmbh). The protocol was based on that approved by the International Clinical Standards Committee for human electroretinography.

[2] = system: C57/Bl6 mice; test: Behavioural output after TRH injection in claudin-5 suppressed mice; type: in vivo
Experimental: The protocol of Example 1 was followed to produce transiently claudin-5 suppressed mice. 48 hours post-delivery of siRNA targeting claudin-5 or a non-targeting siRNA, a 200 μl of a solution containing 20 mg/kg Thyrotropin Releasing Hormone (TRH) was injected to the claudin-5 suppressed mice. TRH was injected in the tail vein and immediately, the behavioural output of mice was assessed by filming them in a clear Perspex box.

[3] = system: claudin-12; test: Claudin-12 staining in brain microvasculature after claudin-12 siRNA; type: in vivo, C57/Bl-6 mice; settings: 48 hours post-injection; vs non-targeting control siRNA
[4] = system: claudin-1; test: Western blot analysis of claudin-1 expression after hydrodynamic tail vein delivery of claudin-1 siRNA; type: in vivo, C57/Bl-6 mice
[5] = system: occludin; test: Western blot analysis of occludin expression after hydrodynamic tail vein delivery of occludin siRNA; type: in vivo, C57/Bl-6 mice
[6] = system: occludin; test: Occludin immunohistochemistry in brain microvasculature after occludin siRNA; type: in vivo, C57/Bl-6 mice; settings: 48 hour time-point
[7] = system: BBB; test: BBB permeability (albumin, immunoglobulin, Hoechst) following suppression of occludin; type: in vivo, C57/Bl-6 mice; settings: for albumin extravasation, immunohistochemistry in brain vibratome sections: 24 hours post-injection; for passage of mouse immunoglobulins (IgG) into the brain: following suppression of occludin
Source text: The protocols used were identical to the protocols used in Example 1.

[8] = 48 hours post injection, vs non-targeting siRNA

`Nc1nc2c(ncn2[C@@H]2O[C@H](COP(=O)(O)OP(=O)(O)OP(=O)(O)O)[C@@H](O)[C@H]2O)c(=O)[nH]1` [GTP] was tested, and the “ERG rod response b-wave, left eye” value ([1]; 11 month old IMPDH−/− mouse, after suppression of claudin-5 and GTP i.p., 2.48 uV before) was 121 uV, the “ERG rod response b-wave, right eye” value ([1]; 11 month old IMPDH−/− mouse, after suppression of claudin-5 and GTP i.p., 50.8 uV before) was 193 uV and the ERG rod tracings ([1]; IMPDH−/− mice, after suppression of claudin-5 and GTP injection) was “increase significantly”.

In the case of `NC(=O)[C@@H]1CCCN1C(=O)[C@H](Cc1cnc[nH]1)NC(=O)[C@@H]1CCC(=O)N1` [TRH, Thyrotropin Releasing Hormone], the “duration of cessation of mobility relative to non-targeting control mice” value ([2]; 20 mg/kg TRH tail vein, 48 hours post delivery of siRNA targeting claudin-5) is reported as no more than 5 times, the “mobility / length of time mice remain immobile” value ([2]; 20 mg/kg TRH, 48 hours post delivery of siRNA targeting claudin-5) is reported as “significant cessation of mobility; also recorded: distinct increase in the length of time” and the “delivery of TRH (359.5 Da) across the BBB” value ([2]; BBB opened with siRNA targeting claudin-5) is reported as “significantly enhanced”.

In the case of “CLDN12 siRNA (3): siRNA, target GUAACACGGCCUUCAAUUC; strands GUAACACGGCCUUCAAUUCUU and GAAUUGAAGGCCGUGUUACUU (SEQ ID No. 28, 29) (listed as RNA, chemistry not given here)”, the “claudin-12 expression at the microvessels of the brain, staining” value [3] is reported as “decreased”.

For “CLDN12 siRNA (4): siRNA, target GGUCUUUACCUUUGACUAU; strands AAUCUUUACCUUUGACUAUUU and AUAGUCAAAGGUAAAGAUUUU (SEQ ID No. 30, 31) (listed as RNA, chemistry not given here)”, the “claudin-12 expression at the microvessels of the brain, staining” value [3] was “decreased”.

With “claudin-1 siRNA (1): siRNA, target GCAAAGCACCGGGCAGAUA; sense AUAGACGGGCCACGAAACGUU, anti-sense CGUUUCGUGGCCCGUCUAUUU (SEQ ID NO: 9, 10) (listed as RNA, chemistry not given here)” the “claudin-1 expression, Western blot” value ([4]; 24 hours post-injection) was “not evident” and the “claudin-1 expression, Western blot” value ([4]; 48 hours post-injection) was “significantly decrease claudin-1 expression”.

In the case of “claudin-1 siRNA (2): siRNA, target GAACAGUACUUUGCAGGCA; sense ACGGACGUUUCAUGACAAGUU, anti-sense CUUGUCAUGAAACGUCCGUUU (SEQ ID NO: 11, 12) (listed as RNA, chemistry not given here)”, the “claudin-1 expression, Western blot” value ([4]; 24 hours post-injection) is reported as “decreased”.

In the case of “claudin-1 siRNA (4): siRNA, target UUUCAGGUCUGGCGACAUU; sense UUACAGCGGUCUGGACUUUUU, anti-sense AAAGUCCAGACCGCUGUAAUU (SEQ ID NO: 13, 14) (listed as RNA, chemistry not given here)”, the “claudin-1 expression, Western blot” value ([4]; 24 hours post-injection) is reported as “decreased” and the “claudin-1 expression, Western blot” value ([4]; 48 hours post-injection) is reported as “suppression was only evident”.

For “occludin siRNA (1): siRNA, target GUUAUAAGAUCUGGAAUGU; sense UGUAAGGUCUAGAAUAUUGUU, anti-sense CAAUAUUCUAGACCUUACAUU (SEQ ID NO: 15, 16) (listed as RNA, chemistry not given here)”, the “occludin expression, Western blot” value [5, 8] was “significantly decreased” and the “occludin staining pattern in brain microvasculature” value (from here on “occludin staining pattern”) [6] was “discontinuous pattern of staining was also evident”.

In the case of “occludin siRNA (2): siRNA, target GAUAUUACUUGAUCGUGAU; sense UAGUGCUAGUUCAUUAUAGUU, anti-sense CUAUAAUGAACUAGCACUAUU (SEQ ID NO: 17, 18) (listed as RNA, chemistry not given here)”, the “occludin expression, Western blot” value [5, 8] is reported as “significantly decreased” and the “occludin staining pattern” value [6] is reported as “discontinuous pattern of staining was also evident”.

“occludin siRNA (3): siRNA, target CAAAUUAUCGCACAUCAAG; sense GAACUACACGCUAUUAAACUU, anti-sense GUUUAAUAGCGUGUAGUUCUU (SEQ ID NO: 19, 20) (listed as RNA, chemistry not given here)” was tested, and the “occludin staining pattern” value [6] was “returned to levels similar to those observed in the non-targeting controls”, the “albumin extravasation, immunohistochemistry in brain vibratome sections” value (shortened to “albumin extravasation”) [7] was “extravascular albumin” and the “albumin extravasation” value ([7]; listed as occludin siRNA 3) was “albumin deposition occurred”. The “passage of mouse immunoglobulins (IgG) into the brain” value [7] was “no extravasation of immunoglobulins”.

For “occludin siRNA (4): siRNA, target AGAUGGAUCGGUAUGAUAA; sense AAUAGUAUGGCUAGGUAGAUU, anti-sense UCUACCUAGCCAUACUAUUUU (SEQ ID NO: 21, 22) (listed as RNA, chemistry not given here)”, the “occludin expression, Western blot” value ([5]; 24 hours post injection) was “decrease”, the “occludin staining pattern” value [6] was “returned to levels similar to those observed in the non-targeting controls” and the “albumin extravasation” value [7] was “extravascular albumin”. For the same compound, the “albumin extravasation” value ([7]; listed as occludin siRNA 4) was “albumin deposition occurred” and the “passage of mouse immunoglobulins (IgG) into the brain” value [7] was “no extravasation of immunoglobulins”.
